One may read the inhibition as the drop in the measured response relative to a control, in per cent. For orientation: IC50 means the midpoint of a concentration-inhibition curve.

SMILES strings stand for the structures.

For this experiment, the system named is HSV-2. Description: Virus inhibition, HSV-2 on Vero cells (PrestoBlue). The experiment is classed as cell-based, herpes simplex virus type 2. As for the experimental part: Viruses and Quantification. Herpes simplex virus type 1 (HSV-1, MacIntyre strain, ATCC, VR-539) or herpes simplex virus type 2 (HSV-2, ATCC, VR-734) were used in these studies. Virus titer was determined by plaque assay. Briefly, following 2 hour-adsorption of various virus dilutions onto a Vero cell monolayer in a 24-well plate, the medium was removed and cells were overlaid with 1.5% carboxymethylcellulose (Sigma Chemical Company, St. Louis, Mo.) and incubated 48 hours at 37° C. with 5% CO2. After incubation, cells were fixed with methanol, stained with Giemsa (Sigma Chemical Company, St. Louis, Mo.) and plaques were counted. Each virus dilution was prepared in quadruplicate.
Cytotoxicity and Virus Inhibition. All ginsenosides, isomers, and protopanaxadiols were evaluated for toxic effects on Vero cells prior to anti-viral testing. Cells were seeded at 5000 cells/well in a black 96-well plate with clear bottom in a volume of 100 μL and allowed to attach for 24 hours. The P. ginseng compounds were prepared in DMSO at 100 μM and were taken through serial two-fold dilutions to determine the concentration when the rate of cell death was less than 10% compared to control, untreated cells. Each dilution was tested in three wells and all assays were repeated three times. Following a 48 hour-incubation at 37° C. in 5% CO2, 11 μL of PrestoBlue (Invitrogen, Carlsbad, Calif.) was added to each well and the plate was incubated for an additional 30 minutes. PrestoBlue determines cell viability by changing from blue to red as resazurin is reduced to resorufin by viable cells. Following the PrestoBlue incubation, fluorescence was determined by spectrophotometric reading using Soft Max Pro (Molecular Diagnostics, San Jose, Calif., USA).
For cytotoxicity testing, 4 μL of dilutions of the ginsenosides or protopanaxadiols were added to 396 μL of medium 199 and 100 μL of this mixture was added to each of three wells. For anti-viral testing, 4 μL of the non-toxic reagent and 4 μL of HSV-1 or HSV-2 diluted to an MOI of 0.1 were added to 392 μL of medium 199 and 100 μL of this mixture was added to each of three wells. Virus inhibition was determined by comparing the cell death of reagent-exposed cells with cell death of control cells only receiving virus. The 50% inhibitory concentration (IC50) was determined through a series of two-fold dilutions and calculation by linear regression analysis.

On to `CC(C)=CCC[C@](C)(O)C1CC[C@]2(C)C1[C@H](O)CC1[C@@]3(C)CC[C@H](O[C@@H]4OC(CO)[C@@H](O)[C@@H](O)C4O[C@@H]4OC(CO)[C@@H](O)[C@@H](O)C4O)C(C)(C)C3CC[C@]12C` (stereo partly drawn) [20(S)-Rg3, 20(S)-ginsenoside-Rg3], for which the “Percent Inhibition of HSV-2” value is reported as 81.7 ± 10.3% (50 μM, ± standard error) and “nearly completely inhibited” (100 μM, ± standard error). Also, the inhibition at 25 µM (Human alphaherpesvirus 2, Vero, 25 μM, ± standard error, read-out: Percent Inhibition of HSV-2) is 14.3 ± 3.3%. In addition, the inhibition at 50 µM (Human alphaherpesvirus 2, Vero, 50 μM, ± standard error, read-out: Percent Inhibition of HSV-2) amounted to 80%. Where the note is “Human alphaherpesvirus 2, Vero, 100 μM, ± standard error, read-out: Percent Inhibition of HSV-2”, the inhibition at 100 µM amounted to 115 ± 6.7%. For the setting “Human alphaherpesvirus 2, Vero, two-fold dilutions, linear regression, read-out: IC50 against HSV-2”, the 50% inhibitory concentration (IC50) was approximately 35 µM.

The record behind these values is patent US11980648B2, “Compositions including ginsenoside 20(S)-Rg3 and methods of using ginsenoside 20(S)-Rg3 to inhibit alpha herpesvirus” (MIDDLE TENNESSEE STATE UNIVERSITY, priority 2020, dated 2024).
